# According to patent publication US20070093436A1, “Drop1, a novel marker for carcinogenesis” (Deutsches Kresforschungszentrum Stiftung Des Offentlichen …, priority 2003, published 2007):
# Experiments:
# Type in all cases: cell-based, human
# [1] = tested on: Drop1 expression in M130 cells; assay: Treatment of cells with methyltransferase inhibitors, Drop1 expression by quantitative PCR
# Experimental: (§1) The differential expression was validated by quantitative PCR and analyzed in the Agilent 2100 Bioanalyzer (Agilent Technologies, Waldbronn, Germany, PC Hewlett packard, Vectra VL, Hewlett packard, Boeblingen; Software Agilent 2100 Bio Sizing 1.3, Agilent Technologies, Waldbronn) or by semi-quantitative analysis of the resulting cDNA on a 2% agarose gel.
# (§2) • 1 μl cDNA of the 20 μl RT-mixture (corresponding to 0.5 ng of cDNA); • 1 μl Drop1 Upper primer (5′ […] ATA 3′ corresponding to positions 8255-8278 in exon 53), 20 μM; • 1 μl Drop1 Lower primer (Lower primer 5′ […] 3′, complementary to positions 8500-8473 in exon 55), 20 μM; • 5 μl cDNA-PCR reaction buffer, 10×; • 1 μl dNTP-Mix, 10 mM; • 1 μl advantage-cDNA-polymerase mix, 50×;
# (§3) Steps 1 to 3 were repeated 34 to 46 times. After individual cycles in that range, aliquots were removed and run on a gel. The amount of PCR-product from the first cycle producing a visible band of 246 bp was then quantitated using the Agilent system and an intercalating dye to detect double-stranded DNA. Under these conditions, quantitative PCR detected Drop1 plus enaptin, yet not cpg2, and the various nexins.
# (§4) Treatment of cells with methyltransferase inhibitors was carried out as described by Widschwendter et al., J. Nat. Cancer Inst. 92 (2000), 826-832). All-trans-retinoic acid (ATRA) and 5-aza-deoxycytidine (Aza-CdR) were from Sigma Chemical Co. (St. Louis, Mo.). 1 mM solutions were prepared in dimethyl sulfoxide and diluted in culture medium. Cells were incubated either for 5 days, with […] Aza-CdR, for 24 h with […], or for 5 days with […] Aza-CdR followed by 24 h with 1 mM ATRA, or left untreated. They were detached with trypsin (0.05%)-EDTA (0.02%) in Dulbecco's phosphate-buffered saline (PBS), washed, and pelleted.
# (§5) The possibility that promoter methylation might downregulate Drop1 was investigated.
# [2] = tested on: Drop1 expression in GG cells; assay: as above
# Experimental: as §1, §2, §3, §4, §5
# [3] = tested on: Drop1 expression in SKOV-3 cells; assay: as above
# Experimental: as §1, §2, §3, §4, §5
# [4] = tested on: Drop1 mRNA in cell lines exhibiting a low level of Drop1 (GG and M130); assay: Treatment of cell lines exhibiting a low level of Drop1 with demethylating agents
# Experimental: as §4, §5
# [5] = 5 days 2.5 mM Aza-CdR, 24 h 1 mM ATRA, or 5 days Aza-CdR followed by 24 h ATRA
smiles,measurement,setting,value
"CC1=C(/C=C/C(C)=C/C=C/C(C)=C/C(=O)O)C(C)(C)CCC1 [ATRA, all-trans-retinoic acid]",Increase of Drop1 expression versus cells in medium,[1],18 fold
same,Expression of downregulated Drop1 in cells treated with inhibitors of gene methylation,[1]; [5],1.8 × 10^−2
same,Increase of Drop1 expression versus cells in medium,[2],2.5 fold
same,Expression of downregulated Drop1 in cells treated with inhibitors of gene methylation,[2]; [5],1.3 × 10^−4
same,Increase of Drop1 expression,"[3]; SKOV-3, a cell line with a physiological level of Drop1",No increase of expression
same,Expression of downregulated Drop1 in cells treated with inhibitors of gene methylation,"[3]; SKOV-3 cells, 5 days 2.5 mM Aza-CdR, 24 h 1 mM ATRA, or 5 days Aza-CdR followed by 24 h ATRA",2.2 × 10^−4
same,Increase of Drop1 mRNA,[4],an order of magnitude
